Source: article PMC10177510, “A Multicenter, Open-Label, Phase I/II Study of FN-1501 in Patients with Advanced Solid Tumors” (Cancers, 2023)

Assay: Phase I/II dose escalation: safety and tolerability (DLT, TEAE)
Type: in vivo
Protocol: This Phase 1/2, FIH, open-label, multi-center, single-arm, dose-escalation study was conducted in pts with histologically or cytologically confirmed advanced solid tumors or R/R AML.
In the absence of worrisome toxicity, the remaining pts could be enrolled and dosed in that cohort. Safety evaluations were performed by investigators, the medical monitor, and the Sponsor. A Safety Monitoring Committee determined dose levels to be administered during dose escalation based on data available from the current and previous dose levels.

## CN1CCN(Cc2ccc(NC(=O)c3[nH]ncc3Nc3ncnc4[nH]ccc34)cc2)CC1 [FN-1501]
2.5 mg/day, 4 patients
  Dose-Limiting Toxicity: 0
2.5 mg/day, N = 4
  Abdominal pain, patients with event: 1
  Back pain, patients with event: 1
  Constipation, patients with event: 0
  Decreased appetite, patients with event: 1
  Diarrhea, patients with event: 0
  Dizziness, patients with event: 0
  Dyspnea, patients with event: 1
  Fatigue, Grade ≥ 3 TEAE, n (%): 1 (25)
  Fatigue, patients with event: 1
  Infusion-related reaction, patients with event: 0
  Nausea, patients with event: 1
  Oedema peripheral, patients with event: 1
  Pyrexia, patients with event: 0
  Total number of TEAEs: 20
  Total patients with at least 1 TEAE: 4
  Vomiting, patients with event: 1
5 mg/day, 3 patients
  Dose-Limiting Toxicity: 0
5 mg/day, N = 3
  Abdominal pain, patients with event: 1
  Back pain, patients with event: 0
  Constipation, patients with event: 1
  Decreased appetite, patients with event: 0
  Diarrhea, patients with event: 1
  Diarrhoea, Grade ≥ 3 TEAE, n (%): 1
  Dizziness, patients with event: 0
  Dyspnea, patients with event: 0
  Fatigue, patients with event: 1
  Infusion-related reaction, patients with event: 1
  Nausea, patients with event: 1
  Oedema peripheral, patients with event: 1
  Pyrexia, patients with event: 1
  Small intestinal obstruction, Grade ≥ 3 TEAE, n (%): 1 (33)
  Total number of TEAEs: 23
  Total patients with at least 1 TEAE: 3
  Vomiting, patients with event: 1
10 mg/day, 5 patients
  Dose-Limiting Toxicity: 0
10 mg/day, N = 5
  Abdominal pain, patients with event: 0
  Back pain, patients with event: 0
  Bacterial sepsis, Grade ≥ 3 TEAE, n (%): 1
  Constipation, patients with event: 1
  Decreased appetite, patients with event: 0
  Delirium, Grade ≥ 3 TEAE, n (%): 1
  Diarrhea, patients with event: 0
  Dizziness, patients with event: 0
  Dyspnea, patients with event: 1
  Fatigue, patients with event: 2
  Infusion-related reaction, patients with event: 0
  Lung infection, Grade ≥ 3 TEAE, n (%): 1
  Nausea, patients with event: 1
  Oedema peripheral, patients with event: 0
  Pyrexia, patients with event: 0
  Stomatitis, Grade ≥ 3 TEAE, n (%): 1
  Total number of TEAEs: 25
  Total patients with at least 1 TEAE: 4
  Vomiting, patients with event: 1
15 mg/day, 3 patients
  Dose-Limiting Toxicity: 0
15 mg/day, N = 3
  Abdominal pain, patients with event: 1
  Back pain, patients with event: 1
  Catheter site infection, Grade ≥ 3 TEAE, n (%): 1
  Constipation, patients with event: 1
  Decreased appetite, patients with event: 0
  Diarrhea, patients with event: 2
  Dizziness, patients with event: 2
  Dyspnea, patients with event: 0
  Fatigue, patients with event: 0
  Infusion-related reaction, patients with event: 1
  Nausea, patients with event: 2
  Oedema peripheral, patients with event: 0
  Pyrexia, patients with event: 1
  Total number of TEAEs: 41
  Total patients with at least 1 TEAE: 3
  Vascular access complication, Grade ≥ 3 TEAE, n (%): 1
  Vomiting, patients with event: 0
22.5 mg/day, 4 patients
  Dose-Limiting Toxicity: 0
22.5 mg/day, N = 4
  Abdominal pain, Grade ≥ 3 TEAE, n (%): 1
  Abdominal pain, patients with event: 2
  Back pain, patients with event: 0
  Constipation, patients with event: 1
  Decreased appetite, patients with event: 2
  Diarrhea, patients with event: 0
  Dizziness, patients with event: 1
  Dyspnea, patients with event: 1
  Fatigue, patients with event: 2
  Infusion-related reaction, patients with event: 0
  Nausea, patients with event: 1
  Oedema peripheral, patients with event: 0
  Pyrexia, patients with event: 1
  Total number of TEAEs: 26
  Total patients with at least 1 TEAE: 4
  Vomiting, patients with event: 1
30 mg/day, 3 patients
  Dose-Limiting Toxicity: 0
30 mg/day, N = 3
  Abdominal pain, patients with event: 1
  Back pain, patients with event: 0
  Constipation, patients with event: 0
  Decreased appetite, patients with event: 0
  Diarrhea, patients with event: 1
  Dizziness, patients with event: 0
  Dyspnea, patients with event: 0
  Fatigue, patients with event: 1
  Hyponatraemia, Grade ≥ 3 TEAE, n (%): 1
  Infusion-related reaction, patients with event: 0
  Nausea, patients with event: 1
  Oedema peripheral, patients with event: 0
  Pyrexia, patients with event: 0
  Syncope, Grade ≥ 3 TEAE, n (%): 1 (33)
  Total number of TEAEs: 16
  Total patients with at least 1 TEAE: 3
  Vomiting, patients with event: 0
40 mg/day, 4 patients
  Dose-Limiting Toxicity: 0
40 mg/day, N = 4
  Abdominal distension, Grade ≥ 3 TEAE, n (%): 1 (25)
  Abdominal pain, patients with event: 0
  Back pain, patients with event: 0
  Blood alkaline phosphatase increased, Grade ≥ 3 TEAE, n (%): 1 (25)
  Blood bilirubin increased, Grade ≥ 3 TEAE, n (%): 1 (25)
  Constipation, patients with event: 0
  Decreased appetite, patients with event: 0
  Diarrhea, patients with event: 1
  Dizziness, patients with event: 0
  Dyspnea, patients with event: 0
  Fatigue, patients with event: 1
  Hyponatraemia, Grade ≥ 3 TEAE, n (%): 1
  Infusion-related reaction, patients with event: 0
  Nausea, patients with event: 0
  Oedema peripheral, patients with event: 1
  Peritonitis, Grade ≥ 3 TEAE, n (%): 1 (25)
  Pyrexia, patients with event: 1
  Total number of TEAEs: 21
  Total patients with at least 1 TEAE: 4
  Vomiting, patients with event: 1
54 mg/day, 3 patients
  Dose-Limiting Toxicity: 0
54 mg/day, N = 3
  Abdominal pain, patients with event: 0
  Anaemia, Grade ≥ 3 TEAE, n (%): 1 (33)
  Back pain, patients with event: 0
  Constipation, patients with event: 0
  Decreased appetite, patients with event: 0
  Diarrhea, patients with event: 0
  Dizziness, patients with event: 0
  Dyspnea, patients with event: 0
  Fatigue, Grade ≥ 3 TEAE, n (%): 1 (33)
  Fatigue, patients with event: 2
  Infusion-related reaction, patients with event: 1
  Nausea, patients with event: 0
  Oedema peripheral, patients with event: 0
  Pyrexia, patients with event: 0
  Total number of TEAEs: 12
  Total patients with at least 1 TEAE: 3
  Vomiting, patients with event: 0
72 mg/day, 3 patients
  Dose-Limiting Toxicity: 0
72 mg/day, N = 3
  Abdominal pain, patients with event: 1
  Back pain, patients with event: 1
  Constipation, patients with event: 0
  Decreased appetite, patients with event: 0
